According to patent US6362237B1, “Compounds with progesterone-antagonistic and antiestrogenic action to be used together for female contraception” (Schering Aktiengesellschaft, priority 1994, dated 2002):

What was measured:
guinea pigs = test: Inhibition of implantation in guinea pigs by estrogen antagonists; assay type: in vivo, guinea pig
[1] = test system: normal guinea pigs with a normal cycle; test: Test 3: receptivity inhibition in guinea pigs treated over 2 cycles, mating in the second cycle; assay type: in vivo, guinea pig; conditions: for effectiveness of the single dose given separately: 0.5 mg daily s.c.; for effectiveness of the single dose given separately / effect of lower doses by themselves: alone; for effect of lower doses by themselves: <1.0 mg daily s.c.
Procedure: The tests were carried out on normal guinea pigs with a normal cycle over a treatment period of 2 cycles. Mating took place in the second cycle.
Doses of Onapristone: 0.1, 0.25, 0.5, 1.0 and 3.0 mg daily s.c.

| SMILES | implantation in guinea pigs (guinea pigs) | effectiveness of the single dose given separately [1] | effect of lower doses by themselves [1] | pregnancies after treatment ([1]; onapristone alone, high doses, daily s.c.) | normal pregnancies ([1]; tamoxifen alone, 10.0 mg daily s.c., 2 cycles) [%] | inhibition of receptivity ([1]; tamoxifen alone, dosage range 0.1-10.0 mg/animal daily s.c.) |
| --- | --- | --- | --- | --- | --- | --- |
| C[C@]12CC[C@@H]3c4ccc(O)cc4C[C@@H](CCCCCCCCC[S+]([O-])CCCC(F)(F)C(F)(F)F)[C@H]3[C@@H]1CC[C@@H]2O (stereo partly drawn) [ICI 182780, 7α-[9-[(4,4,5,5,5-pentafluorpentyl)sulfinyl]nonyl]estra-1,3,5(10)-trien-3,17β-diol] | inhibit implantation |  |  |  |  |  |
| CN(C)c1ccc([C@H]2C[C@]3(C)[C@@H](CC[C@]3(O)CCCO)[C@@H]3CCC4=CC(=O)CCC4=C32)cc1 [onapristone, 11β-[4-(dimethylamino)phenyl]-17α-hydroxy-17β-(3-hydroxypropyl)-13α-estra-4,9-dien-3one] |  | only marginally effective | no effect or a marginal effect | occasional pregnancies occurred |  |  |
| CC/C(=C(\c1ccccc1)c1ccc(OCCN(C)C)cc1)c1ccccc1 [tamoxifen, (Z)-N,N-dimethyl-2-[4-(1,2-diphenyl-1-butenyl)phenoxy]ethanamine] | inhibit implantation | only marginally effective | no effect or a marginal effect |  | 30 | no complete inhibition of receptivity could be achieved |
